Experimental data as given in US20260285850A1, “SUBSTITUTED OXAZOLIDINONES AND IMIDAZOLINONES AS HERBICIDES” (FMC CORPORATION, priority 2023, published 2026).

Key:
Format in all cases: in vivo
[1] = tested on: barnyardgrass (Echinochloa crus-galli); experiment: Test A preemergence soil spray, visual injury rating 0-100; settings: 10 days
Procedure, shortened: (§1)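 Rating: visual, day 10, untreated plants as reference, 0 no effect to 100 full control. Plants were in loam-sand and were treated either preemergence via directed soil spray or postemergence at the one- to two-leaf stage.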

[2] = tested on: blackgrass (Alopecurus myosuroides); experiment: as above; settings: 10 days
Procedure, shortened: as §1

corn (Zea mays) [3] = experiment: as above; settings: 10 days
Procedure, shortened: as §1

[4] = tested on: green foxtail (Setaria viridis); experiment: as above; settings: 10 days
Procedure, shortened: as §1

kochia (Bassia scoparia) [5] = experiment: as above; settings: 10 days
Procedure, shortened: as §1

[6] = tested on: oat, wild (wild oat, Avena fatua); experiment: as above; settings: 10 days
Procedure, shortened: as §1

[7] = tested on: palmer (palmer amaranth, palmer pigweed, Amaranthus palmeri); experiment: as above; settings: 10 days
Procedure, shortened: as §1

[8] = tested on: ragweed (common ragweed, Ambrosia artemisiifolia); experiment: as above; settings: 10 days
Procedure, shortened: as §1

[9] = tested on: ryegrass, Italian (italian ryegrass, Lolium multiflorum); experiment: as above; settings: 10 days
Procedure, shortened: as §1

soybean (Glycine max) [10] = experiment: as above; settings: 10 days
Procedure, shortened: as §1

[11] = tested on: wheat (Triticum aestivum); experiment: as above; settings: 10 days
Procedure, shortened: as §1

[12] = tested on: barnyardgrass (Echinochloa crus-galli); experiment: Test A postemergence application, visual injury rating 0-100
Procedure, shortened: as §1

[13] = tested on: blackgrass (Alopecurus myosuroides); experiment: as above
Procedure, shortened: as §1

corn (Zea mays) [14] = experiment: as above
Procedure, shortened: as §1

[15] = tested on: galium (catchweed bedstraw, Galium aparine); experiment: as above
Procedure, shortened: as §1

[16] = tested on: green foxtail (Setaria viridis); experiment: as above
Procedure, shortened: as §1

[17] = tested on: horseweed (Erigeron canadensis); experiment: as above
Procedure, shortened: as §1

kochia (Bassia scoparia) [18] = experiment: as above
Procedure, shortened: as §1

[19] = tested on: oat, wild (wild oat, Avena fatua); experiment: as above
Procedure, shortened: as §1

[20] = tested on: palmer (palmer amaranth, palmer pigweed, Amaranthus palmeri); experiment: as above
Procedure, shortened: as §1

[21] = tested on: ragweed (common ragweed, Ambrosia artemisiifolia); experiment: as above
Procedure, shortened: as §1

[22] = tested on: ryegrass, Italian (italian ryegrass, Lolium multiflorum); experiment: as above
Procedure, shortened: as §1

soybean (Glycine max) [23] = experiment: as above
Procedure, shortened: as §1

[24] = tested on: wheat (Triticum aestivum); experiment: as above
Procedure, shortened: as §1

[25] = tested on: barnyardgrass (Echinochloa crusgalli); experiment: Test B flooded paddy test, visual plant response rating 0-100; settings: 250 g ai/ha, Flood, applied to paddy water, evaluated after 13 days
Procedure, shortened: (§2)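 Visual scores versus untreated controls were recorded 13 days after treatment of greenhouse-held plants. At the 2-leaf stage, pots were flooded 3 cm above the soil surface and compounds added straight to the water.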

[26] = tested on: ducksalad (Heteranthera limosa); experiment: as above; settings: 250 g ai/ha, Flood, applied to paddy water, evaluated after 13 days
Procedure, shortened: as §2

rice (Oryza sativa) = experiment: as above; settings: 250 g ai/ha, Flood, applied to paddy water, evaluated after 13 days
Procedure, shortened: as §2

[27] = tested on: sedge, umbrella (small-flower umbrella sedge, Cyperus difformis); experiment: as above; settings: 250 g ai/ha, Flood, applied to paddy water, evaluated after 13 days
Procedure, shortened: as §2

[28] = 62 g ai/ha, 0 = no effect, 100 = complete control
[29] = 62 g ai/ha, postemergence, 10 days, 0 = no effect, 100 = complete control
[30] = Postemergence, 16 g ai/ha, greenhouse 10 days, 0 no effect, 100 complete control

C=CC1(C(=O)NC2CC(C(=O)OC)C2)CN(c2cc(F)cc(F)c2)C(=O)O1 (stereo not shown) [Compound 175]
100: Ryegrass, Italian plant response rating (0-100) [22, 29]
70: Barnyardgrass plant response rating (0-100) [12, 29] | Ryegrass, Italian plant response rating (0 to 100 scale) [22, 30] | Wheat plant response rating (0-100) [24, 29]
0: Barnyardgrass plant response rating ([1]; 16 g ai/ha, 0 to 100 scale) | Corn plant response rating (corn (Zea mays) [3]; 16 g ai/ha, 0 to 100 scale) | Corn plant response rating (0-100) (corn (Zea mays) [3]; [28]) | Foxtail, Green plant response rating ([4]; 16 g ai/ha, 0 to 100 scale) | Kochia plant response rating (kochia (Bassia scoparia) [5]; 16 g ai/ha, 0 to 100 scale) | Kochia plant response rating (0-100) (kochia (Bassia scoparia) [5]; [28]) | Oat, Wild plant response rating ([6]; 16 g ai/ha, 0 to 100 scale) | Oat, Wild plant response rating (0-100) [6, 28] | Pigweed, Palmer plant response rating ([7]; 16 g ai/ha, 0 to 100 scale) | Pigweed, Palmer plant response rating (0-100) [7, 28] | Ragweed plant response rating ([8]; 16 g ai/ha, 0 to 100 scale) | Ragweed plant response rating (0-100) [8, 28] | Soybean plant response rating (soybean (Glycine max) [10]; 16 g ai/ha, 0 to 100 scale) | Soybean plant response rating (0-100) (soybean (Glycine max) [10]; [28]) | Barnyardgrass plant response rating (0 to 100 scale) [12, 30] | Corn plant response rating (0 to 100 scale) (corn (Zea mays) [14]; [30]) | Horseweed plant response rating (0-100) [17, 29] | Horseweed plant response rating (0 to 100 scale) [17, 30] | Kochia plant response rating (0-100) (kochia (Bassia scoparia) [18]; [29]) | Kochia plant response rating (0 to 100 scale) (kochia (Bassia scoparia) [18]; [30]) | Pigweed, Palmer plant response rating (0 to 100 scale) [20, 30] | Ragweed plant response rating (0-100) [21, 29] | Ragweed plant response rating (0 to 100 scale) [21, 30] | Soybean plant response rating (0 to 100 scale) (soybean (Glycine max) [23]; [30]) | Plant response rating, Barnyardgrass (0 to 100 scale, 0 is no effect and 100 is complete control) [25] | Plant response rating, Ducksalad (0 to 100 scale, 0 is no effect and 100 is complete control) [26] | Plant response rating, Rice (0 to 100 scale, 0 is no effect and 100 is complete control) (rice (Oryza sativa)) | Plant response rating, Sedge, Umbrella (0 to 100 scale, 0 is no effect and 100 is complete control) [27]
50: Barnyardgrass plant response rating (0-100) [1, 28]
10: Ryegrass, Italian plant response rating ([9]; 16 g ai/ha, 0 to 100 scale) | Pigweed, Palmer plant response rating (0-100) [20, 29]
30: Foxtail, Green plant response rating (0 to 100 scale) [16, 30] | Wheat plant response rating (0 to 100 scale) [24, 30]
20: Corn plant response rating (0-100) (corn (Zea mays) [14]; [29])
40: Blackgrass plant response rating ([2]; 16 g ai/ha, 0 to 100 scale) | Wheat plant response rating ([11]; 16 g ai/ha, 0 to 100 scale)
60: Blackgrass plant response rating (0-100) [2, 28] | Blackgrass plant response rating (0 to 100 scale) [13, 30] | Oat, Wild plant response rating (0 to 100 scale) [19, 30] | Soybean plant response rating (0-100) (soybean (Glycine max) [23]; [29])
80: Oat, Wild plant response rating (0-100) [19, 29]
90: Foxtail, Green plant response rating (0-100) [4, 28] | Ryegrass, Italian plant response rating (0-100) [9, 28] | Wheat plant response rating (0-100) [11, 28] | Blackgrass plant response rating (0-100) [13, 29] | Galium plant response rating (0-100) [15, 29] | Galium plant response rating (0 to 100 scale) [15, 30] | Foxtail, Green plant response rating (0-100) [16, 29]
